Results on four molecules are retold here after US4680290A, “Steroids for the treatment of hypercholesterolemia” (Hoffmann-La Roche Inc., priority 1983, dated 1987).

Series [1] deals with intestinal resorption of cholesterol. Put plainly: inhibition of the intestinal resorption of cholesterol in squirrel monkeys (CHORES). The series is classed as in vivo. The conditions noted are these: 100 μmol/kg p.o., [26-^14 C]-cholesterol in feed, faeces collected 2.5 days, % of control values determined prior to medication. An excerpt: Squirrel monkeys are orally administered the substances to be investigated together with a feed containing a protein, starch, triolein and [26-^14 C]-cholesterol. Thereupon, the faeces is collected for 2.5 days. The difference between the administered and the excreted radioactive cholesterol determined in the faeces is taken as the measurement of resorbed cholesterol. The cholesterol resorption (CHORES) is expressed in percentages of the control values determined prior to the medication.
(§1) The results which have been obtained with some representative products in accordance with the invention are reproduced in the Table hereinafter. There are given for each of the compounds indicated therein the dosage administered (in μmol/kg p.o.) as well as in each case the cholesterol resorption (CHORES) determined in percentages of the cholesterol resorption in the pre-period. Moreover, the Table contains data concerning the acute toxicity of the compounds investigated (LD50 in mg/kg in the case of single oral administration to mice).

Series [2] can be described thus: acute toxicity, single oral administration to mice. Conditions: mouse, in vivo; single oral administration (p.o.) to mice.
Text: as §1

As for `CC(C)CCC[C@@H](C)[C@H]1CC[C@H]2[C@@H]3CC[C@H]4C[C@@H](OP(=O)([O-])OCC[N+](C)(C)C)CC[C@]4(C)[C@H]3CC[C@]12C` [3β-Cholestanyloxy-phosphorylcholine], the “CHORES in % of the pre-period (cholesterol resorption)” value (“CHORES in % of the pre-period” below) in series [1] amounted to 26%. Besides, in series [2], the LD50 (in general, the dose at which mortality reaches 50%) worked out at 5000 mg/kg.

For the molecule `CC[C@H](CC[C@@H](C)[C@H]1CC[C@H]2[C@@H]3CC[C@H]4C[C@@H](OP(=O)([O-])OCC[N+](C)(C)C)CC[C@]4(C)[C@H]3CC[C@]12C)C(C)C` [3β-Stigmastanyloxy-phosphorylcholine, 3β-stigmastanyloxy-phosphorylcholine], the “CHORES in % of the pre-period” value in series [1] is 36%. Besides, in series [2], the median lethal dose (LD50) was 4000 mg/kg.

Consider `CC[C@H](CC[C@@H](C)[C@H]1CC[C@H]2[C@@H]3CC=C4C[C@@H](OP(=O)([O-])OCC[N+](C)(C)C)CC[C@]4(C)[C@H]3CC[C@]12C)C(C)C` [Stigmast-5-en-3β-yloxy-phosphorylcholine], for which the “CHORES in % of the pre-period” value in series [1] was 52%. Also, the LD50 in series [2] was determined as 5000 mg/kg.

Take `CC[C@H](/C=C/[C@@H](C)[C@H]1CC[C@H]2[C@@H]3CC=C4C[C@@H](OP(=O)([O-])OCC[N+](C)(C)C)CC[C@]4(C)[C@H]3CC[C@]12C)C(C)C` [Stigmasta-5,22-dien-3β-yloxy-phosphorylcholine]: the “CHORES in % of the pre-period” value in series [1] is recorded as 33%. The molecule further gave a median lethal dose (LD50) in series [2] of 5000 mg/kg.
